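Method: 48-hour compound exposure of cells in 96-well plates, five concentrations, linear interpolation of endpoints. TGI is the concentration that stops growth completely.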

Among the test systems are OVCAR-5 ovarian; K-562 leukemia; IGROV1 ovarian; T-47D breast; HT29 colon; NCI-H460 lung; TK-10 renal; M14 melanoma; MOLT-4 leukemia; A549 NSCLC; RPMI-8226 leukemia; SN12C renal; ACHN renal; 786-0 renal; SK-MEL-28 melanoma; NCI/ADR-RES ovarian; UACC-257 melanoma; SW-620 colon; CCRF-CEM leukemia; OVCAR-8 ovarian.
What all share (test): inhibition of tumour cell growth, NCI panel, 48 h

In the case of `O=C1C(c2c(O)[nH]c3ccc(S(=O)(=O)O)cc23)=Nc2ccc(Br)cc21`, the TGI in the assay with OVCAR-5 ovarian, in the assay with K-562 leukemia, with IGROV1 ovarian, in the assay with T-47D breast, in the assay on HT29 colon and in the assay on NCI-H460 lung was more than 100 µM in each case. In addition, the TGI in the assay with TK-10 renal, in the assay with M14 melanoma, in the assay with MOLT-4 leukemia, with A549 NSCLC, in the assay with RPMI-8226 leukemia and with SN12C renal was more than 100 µM each time. Moreover, the TGI with ACHN renal, with 786-0 renal, in the assay on SK-MEL-28 melanoma, in the assay with NCI/ADR-RES ovarian, with UACC-257 melanoma and in the assay on SW-620 colon was more than 100 µM throughout. For the same compound, the TGI in the assay with CCRF-CEM leukemia and in the assay with OVCAR-8 ovarian was more than 100 µM each time.

For `O=c1ssc(Cl)c1Nc1c(Cl)ssc1=O`, the TGI in the assay with OVCAR-5 ovarian came out at 37.3 µM; with K-562 leukemia, 15.3 µM; with IGROV1 ovarian it was 34.2 µM; in the assay on T-47D breast, 29.8 µM; in the assay with HT29 colon it was 47.5 µM; with NCI-H460 lung, 34.6 µM. Further, the TGI with TK-10 renal was found to be 33.3 µM; in the assay on M14 melanoma, 39.8 µM; in the assay with MOLT-4 leukemia, 7.29 µM; in the assay with A549 NSCLC it was 49.8 µM; in the assay on RPMI-8226 leukemia, 29.9 µM; in the assay on SN12C renal, 37.9 µM. Further, the TGI in the assay with ACHN renal is more than 54.3 µM; with 786-0 renal, 38.2 µM; in the assay with SK-MEL-28 melanoma, more than 61.8 µM; with NCI/ADR-RES ovarian, 71.4 µM; in the assay on UACC-257 melanoma, 33.4 µM; in the assay on SW-620 colon it was more than 54.4 µM. Also, the TGI is more than 23.5 µM in the assay on CCRF-CEM leukemia and 51.3 µM with OVCAR-8 ovarian.

For the compound `Fc1ccc(OCc2nc3cc(C(F)(F)F)ccc3nc2-c2ccccc2)cc1`, the TGI is more than 100 µM with OVCAR-5 ovarian; more than 59 µM in the assay on K-562 leukemia; more than 100 µM in the assay on IGROV1 ovarian; more than 100 µM in the assay with T-47D breast; 64.9 µM with HT29 colon; more than 100 µM with NCI-H460 lung. The TGI is more than 100 µM with TK-10 renal; more than 100 µM with M14 melanoma; more than 67.6 µM with MOLT-4 leukemia; more than 100 µM in the assay on A549 NSCLC; more than 100 µM in the assay with RPMI-8226 leukemia; more than 100 µM in the assay on SN12C renal. The TGI with ACHN renal, in the assay with 786-0 renal, with SK-MEL-28 melanoma, in the assay with NCI/ADR-RES ovarian, in the assay on UACC-257 melanoma and in the assay with SW-620 colon was more than 100 µM each time. Also, the figures for the TGI with CCRF-CEM leukemia and with OVCAR-8 ovarian were more than 93.1 µM and more than 100 µM, respectively.

On to `C=CCn1c(C23CC4CC(CC(C4)C2)C3)n[nH]c1=S`, for which the TGI in the assay on OVCAR-5 ovarian, with K-562 leukemia, in the assay on IGROV1 ovarian, in the assay on T-47D breast, in the assay on HT29 colon and in the assay with NCI-H460 lung was more than 100 µM each time. Besides, the TGI in the assay on TK-10 renal, in the assay with M14 melanoma, with MOLT-4 leukemia, in the assay on RPMI-8226 leukemia, in the assay on SN12C renal and in the assay with ACHN renal was more than 100 µM throughout. The TGI with 786-0 renal, with SK-MEL-28 melanoma, with NCI/ADR-RES ovarian, with UACC-257 melanoma, in the assay on SW-620 colon and in the assay on CCRF-CEM leukemia was more than 100 µM each time. Also, the TGI in the assay on OVCAR-8 ovarian is more than 100 µM.

`NCCCCN(CCCN)C(=O)c1ccccc1`: the TGI in the assay with OVCAR-5 ovarian, in the assay on K-562 leukemia, in the assay with IGROV1 ovarian, in the assay with T-47D breast, in the assay on HT29 colon and in the assay on NCI-H460 lung was more than 100 µM each time. In addition, the TGI in the assay with TK-10 renal, in the assay with M14 melanoma, in the assay with MOLT-4 leukemia, in the assay with A549 NSCLC, in the assay on RPMI-8226 leukemia and in the assay on SN12C renal was more than 100 µM each time. The TGI with ACHN renal, in the assay on 786-0 renal, with SK-MEL-28 melanoma, with NCI/ADR-RES ovarian, in the assay on UACC-257 melanoma and in the assay on SW-620 colon was more than 100 µM throughout. The TGI with CCRF-CEM leukemia and with OVCAR-8 ovarian was more than 100 µM in each case.

`CCCCCC(=O)Nc1nc[nH]c1C(N)=O`: the TGI in the assay on OVCAR-5 ovarian, in the assay on K-562 leukemia, in the assay on IGROV1 ovarian, with T-47D breast, in the assay on HT29 colon and in the assay on NCI-H460 lung was more than 100 µM throughout. Also, the TGI with TK-10 renal, in the assay on M14 melanoma, in the assay on MOLT-4 leukemia, in the assay with A549 NSCLC, with RPMI-8226 leukemia and with SN12C renal was more than 100 µM in each case. For the same compound, the TGI in the assay on ACHN renal, in the assay with 786-0 renal, in the assay with SK-MEL-28 melanoma, with NCI/ADR-RES ovarian, in the assay with UACC-257 melanoma and in the assay with SW-620 colon was more than 100 µM throughout. In addition, the TGI with CCRF-CEM leukemia and in the assay on OVCAR-8 ovarian was more than 100 µM throughout.

Consider `Cc1ccc(S(=O)(=O)/N=C(\N)N(C)N=O)cc1`, for which the TGI with OVCAR-5 ovarian, in the assay with K-562 leukemia, in the assay with IGROV1 ovarian, in the assay on T-47D breast, with HT29 colon and in the assay with NCI-H460 lung was more than 100 µM throughout. In addition, the TGI in the assay on TK-10 renal, in the assay with M14 melanoma, in the assay with MOLT-4 leukemia, in the assay with A549 NSCLC, in the assay on RPMI-8226 leukemia and with SN12C renal was more than 100 µM throughout. The TGI in the assay with 786-0 renal, with SK-MEL-28 melanoma, with NCI/ADR-RES ovarian, in the assay on UACC-257 melanoma, with SW-620 colon and in the assay with CCRF-CEM leukemia was more than 100 µM in each case. The compound also returned a TGI in the assay on OVCAR-8 ovarian of more than 100 µM.

As for `CCOC(=O)N(c1ccccc1)c1cc(=O)n2ccccc2n1`, the TGI with OVCAR-5 ovarian, in the assay with K-562 leukemia, in the assay with IGROV1 ovarian, in the assay on T-47D breast, in the assay on HT29 colon and in the assay on NCI-H460 lung was more than 100 µM each time. The TGI with TK-10 renal, in the assay with MOLT-4 leukemia, in the assay on A549 NSCLC, in the assay with RPMI-8226 leukemia, with SN12C renal and in the assay with ACHN renal was more than 100 µM throughout. The TGI in the assay on 786-0 renal, with SK-MEL-28 melanoma, in the assay with NCI/ADR-RES ovarian, in the assay on UACC-257 melanoma, with SW-620 colon and in the assay on CCRF-CEM leukemia was more than 100 µM throughout. The compound further yielded a TGI in the assay with OVCAR-8 ovarian of more than 100 µM.

For the compound `COc1ccc2c(c1)c1c(n2CCN(C)C)-c2cccc(OC)c2CC1`, the TGI in the assay with OVCAR-5 ovarian is 29.8 µM; with K-562 leukemia it was 16.4 µM; with IGROV1 ovarian, 39 µM; in the assay with T-47D breast, 27.7 µM; in the assay on HT29 colon it was 14 µM; in the assay on NCI-H460 lung it was 41.5 µM. The TGI came to 41.5 µM with TK-10 renal; 24.9 µM in the assay on M14 melanoma; 26.8 µM with MOLT-4 leukemia; 40.9 µM with A549 NSCLC; 18.2 µM in the assay with RPMI-8226 leukemia; 35.5 µM with SN12C renal. Also, the TGI in the assay with ACHN renal was 38.8 µM; in the assay with 786-0 renal, more than 100 µM; in the assay on SK-MEL-28 melanoma, 32 µM; in the assay with NCI/ADR-RES ovarian, 47.3 µM; with UACC-257 melanoma, 37.7 µM; with CCRF-CEM leukemia, 15.1 µM. This compound yielded a TGI in the assay on OVCAR-8 ovarian of 42.4 µM.

Turning to `O=C1/C(=C/c2ccc(Cl)cc2)N=C(c2ccccc2)N1c1nc2ccccc2s1`, the TGI in the assay on OVCAR-5 ovarian, in the assay with K-562 leukemia, with IGROV1 ovarian, with T-47D breast, in the assay with HT29 colon and with NCI-H460 lung was more than 100 µM throughout. Further, the TGI with TK-10 renal was more than 100 µM; in the assay with M14 melanoma, more than 100 µM; in the assay on MOLT-4 leukemia, 57.7 µM; in the assay with RPMI-8226 leukemia, more than 100 µM; in the assay on ACHN renal it was more than 100 µM; in the assay on 786-0 renal, more than 100 µM. In addition, the TGI with SK-MEL-28 melanoma, in the assay with NCI/ADR-RES ovarian, in the assay with UACC-257 melanoma, in the assay with SW-620 colon, in the assay with CCRF-CEM leukemia and in the assay with OVCAR-8 ovarian was more than 100 µM throughout.

For the compound `O=c1oc2ccccc2c(O)c1C1c2c(c3ccccc3oc2=O)Oc2c1c(=O)oc1ccccc21`, the TGI is more than 100 µM in the assay with K-562 leukemia; more than 100 µM in the assay on IGROV1 ovarian; more than 100 µM in the assay on T-47D breast; 98 µM with HT29 colon; 31.7 µM with NCI-H460 lung; more than 100 µM with TK-10 renal. Further, the TGI is more than 100 µM in the assay with MOLT-4 leukemia; 87.9 µM with RPMI-8226 leukemia; 73.3 µM in the assay on SN12C renal; 62.9 µM in the assay with ACHN renal; more than 100 µM with 786-0 renal; 97.8 µM in the assay with SK-MEL-28 melanoma. In addition, the TGI with NCI/ADR-RES ovarian, with UACC-257 melanoma, in the assay on SW-620 colon, with CCRF-CEM leukemia and in the assay with OVCAR-8 ovarian was more than 100 µM each time.

Values taken from PubChem BioAssay (NCI).
